{"source": "patent US8927559B2", "about": "“Quinazolinone-type compounds as CRTH2 antagonists” (Merck Sharp & Dohme Corp., priority 2010, dated 2015)", "note": "Where “and” joins values, the source holds several entries; their conditions need not be identical. Equal entries are not always repeated."}
{"biological_target": "T1, CRTH2 receptor (hCRTH2) (Homo sapiens, UniProt Q9Y5Y4)", "T1 construct": "expressed in transfected cells; host or cells: HEK cells (HEK-hCRTH2 cell line), membranes", "T1 sequence (Q9Y5Y4 1-395)": "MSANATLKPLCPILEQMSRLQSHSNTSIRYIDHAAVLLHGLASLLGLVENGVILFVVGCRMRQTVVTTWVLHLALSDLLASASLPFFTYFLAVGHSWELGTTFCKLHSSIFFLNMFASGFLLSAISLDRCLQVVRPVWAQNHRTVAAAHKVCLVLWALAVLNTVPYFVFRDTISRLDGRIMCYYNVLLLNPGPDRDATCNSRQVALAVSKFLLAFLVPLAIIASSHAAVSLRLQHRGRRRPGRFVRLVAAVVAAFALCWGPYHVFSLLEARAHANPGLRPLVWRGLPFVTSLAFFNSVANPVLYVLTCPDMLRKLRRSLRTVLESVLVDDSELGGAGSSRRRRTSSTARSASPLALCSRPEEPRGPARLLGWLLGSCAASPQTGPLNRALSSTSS", "assay": "Radioligand binding assay ([3H]PGD2 competition, membranes of HEK-hCRTH2 cell line)", "details": "3.0 nM [3H]PGD2, HEK-hCRTH2 membranes, 60 min, room temperature; read-out: Ki", "protocol": "Competing ligands were diluted in dimethylsulfoxide (Me2SO) that was kept constant at 1% (v/v) of the final incubation volume. The reaction was initiated by the addition of 8-20 μg of membrane protein prepared from a HEK-hCRTH2 cell line. Total and non-specific binding were determined in the absence and the presence of […] PGD2, respectively. […] The reaction was routinely conducted for 60 min at room temperature and terminated by rapid filtration through prewetted (0.3% polyethyleneimine) 96-well printed filtermate (Wallac) using a Tomtec harvester. After washing with cold buffer, the filter was dried for 2 minutes in microwave, and Meltilex Scintillator sheet (Wallac) was melted on for 2 min."}
{"smiles": "O=C(O)CCCCc1nc2cc(-c3c[nH]nn3)ccc2c(=O)n1-c1ccc(F)cc1", "note": "[Example 18, 5-[3-(4-fluorophenyl)-4-oxo-7-(1H-1,2,3-triazol-4-yl)-3,4-dihydroquinazolin-2-yl]pentanoic acid]", "Ki": "10 to 50 nM"}
{"smiles": "O=C(O)CCCCc1nc2cc(-c3cn(Cc4ccc(F)cc4)nn3)ccc2c(=O)n1-c1ccc(F)cc1", "note": "[Example 19, 5-{7-[1-(4-fluorobenzyl)-1H-1,2,3-triazol-4-yl]-3-(4-fluorophenyl)-4-oxo-3,4-dihydroquinazolin-2-yl}pentanoic acid]", "Ki": "≤ 10 nM"}
{"smiles": "CS(=O)(=O)c1ccc(Cn2cc(-c3ccc4c(=O)n(-c5ccc(F)cc5)c(CCCCC(=O)O)nc4c3)nn2)cc1", "note": "[Example 19D]", "Ki": "≤ 10 nM and 1.2 nM"}
{"smiles": "O=C(O)CCCCc1nc2cc(-c3cn(-c4cccnc4)nn3)ccc2c(=O)n1-c1ccc(F)cc1", "note": "[Example 20, 5-{3-(4-fluorophenyl)-4-oxo-7-[1-(pyridin-3-yl)-1H-1,2,3-triazol-4-yl]-3,4-dihydroquinazolin-2-yl}pentanoic acid]", "Ki": "≤ 10 nM"}
{"smiles": "O=C(O)CCCCc1nc2cc(-n3cc(C4CC4)nn3)ccc2c(=O)n1-c1ccc(F)cc1", "note": "[Example 21, 5-[7-(4-cyclopropyl-1H-1,2,3-triazol-1-yl)-3-(4-fluorophenyl)-4-oxo-3,4-dihydroquinazolin-2-yl]pentanoic acid]", "Ki": "≤ 10 nM"}
{"smiles": "CC(C)(O)c1cn(-c2ccc3c(=O)n(-c4ccc(F)cc4)c(CCCCC(=O)O)nc3c2)nn1", "note": "[Example 21C]", "Ki": "10 to 50 nM"}
{"smiles": "O=C(O)CCCCc1nc2cc(-n3cc(-c4ccccc4)nn3)ccc2c(=O)n1-c1ccc(F)cc1", "note": "[Example 21D]", "Ki": "≤ 10 nM"}
{"smiles": "O=C(O)CCCCc1nc2cc(-n3cc(Cc4ccccc4)nn3)ccc2c(=O)n1-c1ccc(F)cc1", "note": "[Example 21E]", "Ki": "≤ 10 nM"}
{"smiles": "O=C(O)CCCCc1nc2cc(-c3nc(Cc4ccc(F)cc4)no3)ccc2c(=O)n1-c1ccc(F)cc1", "note": "[Example 22C]", "Ki": "10 to 50 nM"}
{"smiles": "COc1ccccc1S(=O)(=O)NCc1cc(-c2ccc3c(=O)n(-c4ccc(F)cc4)c(CCCCC(=O)O)nc3c2)no1", "note": "[Example 24, 5-(3-(4-fluorophenyl)-7-(5-((2-methoxyphenylsulfonamido)methyl)isoxazol-3-yl)-4-oxo-3,4-dihydroquinazolin-2-yl)pentanoic acid]", "Ki": "≤ 10 nM"}
{"smiles": "O=C(O)CCCCc1nc2cc(-c3cc(CNC(=O)c4ccccc4)on3)ccc2c(=O)n1-c1ccc(F)cc1", "note": "[Example 24F]", "Ki": "≤ 10 nM"}
{"smiles": "Cc1ccc(S(=O)(=O)NCc2cc(-c3ccc4c(=O)n(-c5ccc(F)cc5)c(CCCCC(=O)O)nc4c3)no2)cc1", "note": "[Example 24G]", "Ki": "≤ 10 nM"}
{"smiles": "O=C(O)CCCCc1nc2cc(-c3cc(CNS(=O)(=O)c4ccc(F)cc4)on3)ccc2c(=O)n1-c1ccc(F)cc1", "note": "[Example 24H]", "Ki": "≤ 10 nM"}
{"smiles": "O=C(O)CCCCc1nc2cc(-c3cc(CNS(=O)(=O)Cc4ccccc4)on3)ccc2c(=O)n1-c1ccc(F)cc1", "note": "[Example 24J]", "Ki": "≤ 10 nM"}
{"smiles": "CC(C)(C)c1ccc(S(=O)(=O)NCc2cc(-c3ccc4c(=O)n(-c5ccc(F)cc5)c(CCCCC(=O)O)nc4c3)no2)cc1", "note": "[Example 24L]", "Ki": "10 to 50 nM"}
{"smiles": "O=C(O)CCCCc1nc2cc(-c3cc(CNS(=O)(=O)c4ccc(-c5ccccc5)cc4)on3)ccc2c(=O)n1-c1ccc(F)cc1", "note": "[Example 24M]", "Ki": "10 to 50 nM and 40.5 nM"}
{"smiles": "O=C(O)CCCCc1nc2cc(-c3cc(CNS(=O)(=O)c4cc(F)cc(F)c4)on3)ccc2c(=O)n1-c1ccc(F)cc1", "note": "[Example 24N]", "Ki": "≤ 10 nM"}
{"smiles": "O=C(O)CCCCc1nc2cc(-c3cc(CNS(=O)(=O)c4ccc(F)c(F)c4)on3)ccc2c(=O)n1-c1ccc(F)cc1", "note": "[Example 24P]", "Ki": "≤ 10 nM"}
{"smiles": "CC(C)(C)OC(=O)NCc1cc(-c2ccc3c(=O)n(-c4ccc(F)cc4)c(CCCCC(=O)O)nc3c2)no1", "note": "[Example 24Q]", "Ki": "≤ 10 nM"}
{"smiles": "O=C(O)CCCCc1nc2cc(-c3cc(CNC(=O)c4ccc(F)cc4)on3)ccc2c(=O)n1-c1ccc(F)cc1", "note": "[Example 24R]", "Ki": "10 to 50 nM"}
{"smiles": "O=C(O)CCCCc1nc2cc(-c3cc(CNS(=O)(=O)c4ccc(OC(F)(F)F)cc4)on3)ccc2c(=O)n1-c1ccc(F)cc1", "note": "[Example 24i]", "Ki": "≤ 10 nM"}
